Source: patent US11149022B2, “Antagonists of the muscarinic acetylcholine receptor M4” (Vanderbilt University, priority 2017, dated 2021)

Target: T1, Human M4 (Homo sapiens, UniProt P08173)
T1 construct: expressed in transfected cells; host or cells: CHO-K1 (ATCC), stably co-expressing chimeric G protein Gqi5
T1 sequence (P08173 1-479): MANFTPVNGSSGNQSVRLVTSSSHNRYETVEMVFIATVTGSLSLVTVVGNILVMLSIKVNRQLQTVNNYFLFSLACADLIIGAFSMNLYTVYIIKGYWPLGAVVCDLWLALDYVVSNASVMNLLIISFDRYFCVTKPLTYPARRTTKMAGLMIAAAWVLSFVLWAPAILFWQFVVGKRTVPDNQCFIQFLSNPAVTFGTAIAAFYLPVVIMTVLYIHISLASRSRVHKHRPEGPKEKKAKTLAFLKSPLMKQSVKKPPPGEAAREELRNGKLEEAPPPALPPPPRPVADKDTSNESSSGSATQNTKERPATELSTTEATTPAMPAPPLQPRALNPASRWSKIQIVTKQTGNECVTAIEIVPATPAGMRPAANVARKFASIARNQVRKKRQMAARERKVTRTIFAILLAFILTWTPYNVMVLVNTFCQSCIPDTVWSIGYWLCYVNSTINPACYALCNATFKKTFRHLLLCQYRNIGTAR
Assay: mAChR M4 cell-based functional assay (calcium flux, antagonist mode)
Conditions: for remaining activity at 30 µM: % ACh maximum at 30 μM, read-out: Emin; for IC50: M4/Gqi5/CHO-K1 cells, concentration-dependent decrease of the EC80 acetylcholine response
Experimental: Human or rat M4 cDNA, along with the chimeric G protein Gqi5, were transfected into Chinese hamster ovary (CHO-K1) cells purchased from the American Type Culture Collection using Lipofectamine2000. M4/Gqi5/CHO cells were grown in Ham's F-12 medium containing 10% heat-inactivated fetal bovine serum (FBS), 20 mM HEPES, 500 μg/mL G418 sulfate, and 200 μg/mL Hygromycin B.
For high throughput measurement of agonist-evoked increases in intracellular calcium, CHO-K1 cells stably expressing muscarinic receptors were plated in growth medium lacking G418 and hygromycin at 15,000 cells/20 μL/well in Greiner 384-well black-walled, tissue culture (TC)-treated, clear-bottom plates (VWR). Cells were incubated overnight at 37° C. and 5% CO2. The next day, cells were washed using an ELX 405 (BioTek) with assay buffer; the final volume was then aspirated to 20 μL, Next, 20 μL of a 2.3 μM stock of Fluo-4/acetoxymethyl ester (Invitrogen, Carlsbad, Calif.), prepared as a 2.3 μM stock in DMSO, mixed in a 1:1 ratio with 10% (w/v) Pluronic F-127 and diluted in assay buffer, was added to the wells and the cell plates were incubated for 50 min at 37° C. and 5% CO2. Dye was removed by washing with the ELX 405 and the final volume was aspirated to […]. Compound master plates were formatted in a 10 point concentration-response curve (CRC) format (1:3 dilutions) in 100% DMSO with a starting concentration of 10 or 1 mM using a BRAVO liquid handler (Agilent). Test compound CRCs were then transferred to daughter plates (240 nL) using the Echo acoustic plate reformatter (Labcyte, Sunnyvale, Calif.) and then diluted into assay buffer (40 μL) to a 2× stock using a Thermo Fisher Combi (Thermo Fisher Scientific, Waltham, Mass.).
Calcium flux was measured using the Functional Drug Screening System (FDSS) 6000 or 7000 (Hamamatsu Corporation, Tokyo, Japan) as an increase in the fluorescent static ratio. Compounds were applied to cells (20 μL, 2×) using the automated system of the FDSS at 2 seconds into the protocol and the data were collected at 1 Hz. At 143 s, 10 μL of an EC20 concentration of the muscarinic receptor agonist acetylcholine was added (5×), followed by the addition of 12 μL of an EC80 concentration of acetylcholine at the 268 s time point (5×). Agonist activity was analyzed as a concentration-dependent increase in calcium mobilization upon compound addition. Positive allosteric modulator activity was analyzed as a concentration-dependent increase in the EC20 acetylcholine response. Antagonist activity was analyzed as a concentration-dependent decrease in the EC80 acetylcholine response; for the purposes of the tables herein, an […] (inhibitory concentration 50) was calculated as a concentration-dependent decrease of the response elicited by an EC80 concentration of acetylcholine. Concentration-response curves were generated using a four-parameter logistical equation in XLFit curve fitting software (IDBS, Bridgewater, N.J.) for Excel (Microsoft, Redmond, Wash.) or Prism (GraphPad Software, Inc., San Diego, Calif.) or the Dotmatics software platform (Dotmatics, Bishop's Stortford, UK).
Compounds were synthesized as described above. Activity (IC50 and Emin) was determined in the mAChR M4 cell-based functional assay as described above and the data are shown in Table 4.

SMILES | remaining activity at 30 µM | IC50
Cc1nn(C)cc1-c1ccc(OC2CC3(CCN(CC4CC5C=CC4C5)CC3)C2)nn1 (stereo not shown) [Compound 24, 7-(5-bicyclo[2,2.1]hept-2-enylmethyl)-2-[6-(1,3-dimethylpyrazol-4-yl)pyridazin-3-yl]oxy-7-azaspiro[3.5]nonane] | 2.76% | 0.11 µM
Cc1nn(C)cc1-c1ccc(OC2CC3(CCN(CC(C)C(C)(C)C)CC3)C2)nn1 (stereo not shown) [Compound 25, 2-[6-(1,3-dimethylpyrazol-4-yl)pyridazin-3-yl]oxy-7-(2,3,3-triniethylbutyl)-7-azaspiro[3.5]nonane] | 3.1% | 0.21 µM
Cc1nn(C)cc1-c1ccc(OC2CC3(CCN(CC4CCCCC4)CC3)C2)nn1 [Compound 26, 7-(cyclohexylmethyl)-2-[6-(1,3-dimethylpyrazol-4-yl)pyridazin-3-yl]oxy-7-azaspiro[3.5]nonane] | 4.43% | 0.63 µM
Cc1nn(C)cc1-c1ccc(OC2CC3(CCN(CC4CCOCC4)CC3)C2)nn1 [Compound 27, 2-[6-(1,3-dimethylpyrazol-4-yl)pyridazin-3-yl]oxy-7-(tetrahydropyran-4-ylmethyl)-7-azaspiro[3.5]nonane] | 11.6% | 4.43 µM
Cc1nn(C)cc1-c1ccc(OC2CC3(CCN(CC4CCCOC4)CC3)C2)nn1 (stereo not shown) [Compound 28, 2-[6-(1,3-dimethylpyrazol-4-yl)pyridazin-3-yl]oxy-7-(tetrahydropyran-3-ylmethyl)-7-azaspiro[3.5]nonane] | 17.1% | 5.81 µM
Cc1nn(C)cc1-c1ccc(OC2CC3(CCN(CC4CCSCC4)CC3)C2)nn1 [Compound 29, 2-[6-(1,3-dimethylpyrazol-4-yl)pyridazin-3-yl]oxy-7-(tetrahydrothiopyran-4-ylmethyl)-7-azaspiro[3.5]nonane] | 5.29% | 1.17 µM
Cc1nn(C)cc1-c1ccc(OC2CC3(CCN(Cc4ccccc4)CC3)C2)nn1 [Compound 30, 7-benzyl-2-[6-(1,3-dimethylpyrazol-4-yl)pyridazin-3-yl]oxy-7-azaspiro[3.5]nonane] | 5.31% | 1.63 µM
Cc1cccnc1CN1CCC2(CC1)CC(Oc1ccc(-c3cn(C)nc3C)nn1)C2 [Compound 31, 2-[6-(1,3-dimethylpyrazol-4-yl)pyridazin-3-yl]oxy-7-[(3-methyl-2-pyridyl)methyl]-7-azaspiro[3.5]nonane] | 8.05% | 2.67 µM
Cc1cnn(C)c1-c1ccc(OC2CC3(CCN(CC4CC5C=CC4C5)CC3)C2)nn1 (stereo not shown) [Compound 32, 7-(5-bicyclo[2.2.1]hept-2-enylmethyl)-2-[6-(2,4-dimethylpyrazol-3-yl)pyridazin-3-yl]oxy-7-azaspiro[3.5]nonane] | 3.96% | 0.16 µM
Cc1cnn(C)c1-c1ccc(OC2CC3(CCN(CC(C)C(C)(C)C)CC3)C2)nn1 (stereo not shown) [Compound 33, 2-[6-(2,4-dimethylpyrazol-3-yl)pyridazin-3-yl]oxy-7-(2,3,3-trimethylbutyl)-7-azaspiro[3.5]nonane] | 3.87% | 0.25 µM

Continued, values first:

remaining activity at 30 µM | IC50 | SMILES
4.38% | 0.85 µM | Cc1cnn(C)c1-c1ccc(OC2CC3(CCN(CC4CCCCC4)CC3)C2)nn1 [Compound 34, 7-(cyclohexylmethyl)-2-[6-(2,4-dimethylpyrazol-3-yl)pyridazin-3-yl]oxy-7-azaspiro[3.5]nonane]
17.8% | 6.37 µM | Cc1cnn(C)c1-c1ccc(OC2CC3(CCN(CC4CCOCC4)CC3)C2)nn1 [Compound 35, 2-[6-(2,4-dimethylpyrazol-3-yl)pyridazin-3-yl]oxy-7-(tetrahydropyran-4-ylmethyl)-7-azaspiro[3.5]nonane]
4.76% | 1.21 µM | Cc1cnn(C)c1-c1ccc(OC2CC3(CCN(CC4CCSCC4)CC3)C2)nn1 [Compound 36, 2-[6-(2,4-dimethylpyrazol-3-yl)pyridazin-3-yl]oxy-7-(tetrahydrothiopyran-4-ylmethyl)-7-azaspiro[3.5]nonane]
10.8% | 3.45 µM | Cc1cnn(C)c1-c1ccc(OC2CC3(CCN(Cc4ccccc4)CC3)C2)nn1 [Compound 37, 7-benzyl-2-[6-(2,4-dimethylpyrazol-3-yl)pyridazin-3-yl]oxy-7-azaspiro[3.5]nonane]
14.8% | 7.72 µM | Cc1cccnc1CN1CCC2(CC1)CC(Oc1ccc(-c3c(C)cnn3C)nn1)C2 [Compound 38, 2-[6-(2,4-dimethylpyrazol-3-yl)pyridazin-3-yl]oxy-7-[(3-methyl-2-pyridyl)methyl]-7-azaspiro[3.5]nonane]
4.55% | 0.22 µM | Cc1nn(C)cc1-c1ccc(NCC2CC3(CCN(CCC(C)(C)C)CC3)C2)nn1 [Compound 39, N-[[7-(3,3-Dimethylbutyl)-7-azaspiro[3.5]nonan-2-yl]methyl]-6-(1,3-dimethylpyrazol-4-yl)pyridazin-3-amine]
2.63% | 0.24 µM | Fc1ccc(Cl)c(-c2ccc(NCC3CC4(CCN(CC5CC6C=CC5C6)CC4)C3)nn2)c1 (stereo not shown) [Compound 40, N-[[7-(5-bicyclo[2.2.1]hept-2-enylmethyl)-7-azaspiro[3.5]nonan-2-yl]methyl]-6-(2-chloro-5-fluoro-phenyl)pyridazin-3-amine]
2.42% | 0.47 µM | CC(C)(C)CCN1CCC2(CC1)CC(CNc1ccc(-c3cc(F)ccc3Cl)nn1)C2 [Compound 41, 6-(2-chloro-5-fluoro-phenyl)-N-[[7-(3,3-dimethylbutyl)-7-azaspiro[3.5]nonan-2-yl]methyl]pyridazin-3-amine]
6.27% | 3.14 µM | Fc1ccc(Cl)c(-c2ccc(NCC3CC4(CCN(CC5CCCCC5)CC4)C3)nn2)c1 [Compound 42, 6-(2-chloro-5-fluoro-phenyl)-N-[[7-(cyclohexylmethyl)-7-azaspiro[3.5]nonan-2-yl]methyl]pyridazin-3-amine]
5.29% | 2.28 µM | Fc1ccc(Cl)c(-c2ccc(NCC3CC4(CCN(CC5CCCOC5)CC4)C3)nn2)c1 (stereo not shown) [Compound 43, 6-(2-chloro-5-fluoro-phenyl)-N-[[7-(tetrahydropyran-3-ylmethyl)-7-azaspiro[3.5]nonan-2-yl]methyl]pyridazin-3-amine]
4.66% | 0.73 µM | Fc1ccc(Cl)c(-c2ccc(NCC3CC4(CCN(CC5CCOCC5)CC4)C3)nn2)c1 [Compound 44, 6-(2-chloro-5-fluoro-phenyl)-N-[[7-(tetrahydropyran-4-ylmethyl)-7-azaspiro[3.5]nonan-2-yl]methyl]pyridazin-3-amine]
5.72% | 1.34 µM | Fc1ccc(Cl)c(-c2ccc(NCC3CC4(CCN(Cc5ccccc5)CC4)C3)nn2)c1 [Compound 45, N-[(7-benzyl-7-azaspiro[3.5]nonan-2-yl)methyl]-6-(2-chloro-5-fluoro-phenyl)pyridazin-3-amine]
9.19% | 0.78 µM | Fc1ccc(Cl)c(-c2ccc(NCC3CC4(CCN(Cc5ccccc5F)CC4)C3)nn2)c1 [Compound 46, 6-(2-chloro-5-fluoro-phenyl)-N-[[7-[(2-fluorophenyl)methyl]-7-azaspiro[3.5]nonan-2-yl]methyl]pyridazin-3-amine]
